The results in this text go back to EP0808325B1, “[…] […] SERIES FOR […] GABA RECEPTOR” (priority 1994, dated 1996).

Assay [1] has as its system metrazol induced convulsions. Briefly: animal or person. It counts as in vivo, mice. The note with it: IP. How it is done:
Experiments were also performed to determine the physiological relevance of neuroactive steroid and GABA receptor interactions by assessing the ability of the compounds of and used in the invention to prevent metrazol induced convulsions in mice. […] The time to onset of myoclonus (presence of forelimb clonic activity) induced by metrazol was determined by observing each mouse for a period of 30 minutes. […]
The anticonvulsant tests are similar to that described above. […] The number of animals with tonic and/or clonic convulsions was recorded. In the maximal electroshock test, 50 mA of current at 60 Hz was delivered through corneal electrodes for 200 msec to induce tonic seizure. The ability of compounds to abolish the tonic component was defined as the endpoint. General CNS depression potential was determined by a rotorod test 10 minutes after the injection of compounds where the number of mice staying on a rotating (6 rpm) rod for 1 minute in one of the three trials was determined. […]

A further assay concerns mice. Briefly: elevated plus-maze. The note with it: IP. The format is in vivo, N.I.H. Swiss-Webster mice. From the text:
The theoretical basis for the elevated plus-maze test is similar to that of the light/dark transition test. As described by Pellow et al., J. Neurosci. Meth 14:149-167 (1985), the elevated plus-maze apparatus is designed to utilize the mice's natural aversion to open spaces. The apparatus consists of two open-arms and two enclosed-arms. The elevated plus-maze test allows for two measures of anxiety, the number of entries into the open-arms and the time spent on the open-arms, both expressed as a percentage of the total number of entries and time spent in/on both the open-arms and enclosed-arms.
Male N.I.H. Swiss-Webster mice (Harlan, Indianapolis, IN) weighing 15-20 g were housed four per cage in polyethylene cages with sawdust bedding. The colony room was environmentally controlled (22°C) with a 12 hr light/dark cycle (0600-1800 hr). Food and water were available ad libitum, except during testing. The experiments were run from 0700-1500 hr and groups were counterbalanced for time of day effects. Mice were only administered drug or vehicle once.
The method used was previously described (Lister, Psychopharmacol. 92:180-185 (1987)). The apparatus included two open arms perpendicular to two enclosed arms elevated 50 cm from the floor. Each arm was 50 cm long and the walls of the enclosed arms were 40 cm tall. The maze was made completely of black plexiglass. Incandescent 200 W light bulbs were above each of the open arms to produce a strong contrast between the open arms and the enclosed arms.
Ten minutes after an injection, the N.I.H. Swiss-Webster mice were placed in the center of the plus-maze facing an open arm. During the 5 min test period, the number of entries onto the open arms and the enclosed arms, and the time spent in the open arms and enclosed arms were measured. All four paws had to be within an arm for the dependent variable to be measured. Therefore, the time spent in the center of the maze is not counted, so the total time spent in the open arms and the enclosed arms may not equal 5 min. […]

The target in another assay is GR complex. Put plainly: modulation of [35S]TBPS binding in rat cerebral cortex P2 homogenate. The note with it: for IC50: concentration of compounds to inhibit 50% of control [35S]TBPS binding, 2 nM [35S]TBPS, 25°C, 90 minutes; for IMAX: maximum inhibition of [35S]TBPS binding, I* = Inactive. Also on record: species or system Sprague-Dawley rats; IMAX: unit not given here. The method, then: We performed several experiments to determine the nature of the modulation of [^35S]TBPS as affected by the compounds of the invention.
These procedures were performed as follows:
Brains from male Sprague-Dawley rats were removed immediately following sacrifice and the cerebral cortices dissected over ice. […] Briefly, the cortices were gently homogenized in 0.32 M sucrose followed by centrifugation at 1000 x g for 10 minutes. The supernatant was collected and centrifuged at 9000 x g for 20 minutes. The resultant P2 pellet was suspended as a 10% (original wet weight/volume) suspension in 50 mM Na/K phosphate buffer (pH 7.4) 200 mM NaCI to form the homogenate.
One hundred microliter […] aliquots of the P2 homogenate (0.5 milligrams (mg) protein) were incubated with 2 nanomolar (nM) [^35S]TBPS (70-110 curies/millimole;, New England Nuclear, Boston, MA) in the presence or absence of the naturally occurring steroids or their synthetic derivatives to be tested. The tested compounds were dissolved in dimethylsulfoxide (Baker Chem. Co., Phillipsbury, NJ) and added to the incubation mixture in 5 µL aliquots. The incubation mixture was brought to a final volume of 1 mL with buffer. Nonspecific binding was defined as binding in the presence of […]. The effect and specificity of GABA (Sigma Chem. Co., St. Louis, MO) was evaluated by performing all assays in the presence of GABA plus (+)bicuculline (Sigma Chem. Co.). Incubations maintained at 25°C for 90 minutes (steady state conditions) were terminated by rapid filtration through glass fiber filters (No. 32, Schleicher and Schuell, Keene, NH). Filter-bound radioactivity was quantitated by liquid scintillation spectrophotometry.
Various compounds were screened to determine their potential as modulators of [^35S]TBPS binding in vitro. These assays were performed in accordance with the above discussed procedures. […] It is an indication of a compound's in vitro potency. Maximum inhibition is an indication of a compound's in vitro efficacy.

Where [2] appears, read: 50% hpbcd, 10 mg/kg, 10 minutes prior to metrazol (85 mg/kg).

As usually defined, the IC50 is the concentration at which inhibition is half-maximal.

In the case of `C#C[C@@]1(O)CC[C@H]2[C@H](CC[C@@H]3[C@@H]2CC[C@]2(C)[C@@H](C(C)=O)CC[C@@H]32)C1` [3β-ethynyl-3α-hydroxy-19-nor-5β-pregnan-20-one], in assay [1] (setting [2]), the “% Protected” value is recorded as 87.5%. Besides, the “% Control” value in the assay with mice (50% hpbcd, 10 mg/kg) came out at 172%. Also, at GR complex (no unit printed), the IC50 came out at 0.044 µM. Also, the IMAX in the assay on GR complex was 93.
The like results for `C[C@]12CC[C@H]3[C@@H](CC[C@@H]4C[C@@](O)(C(F)(F)F)CC[C@@H]43)[C@@H]1CC[C@@H]2C(=O)CO` [3α,21-Dihydroxy-3β-trifluoromethyl-5β-19-norpregnan-20-one] were, in that order, 118.8%, 140%, 0.246 µM and 100.
The like results for `C=C[C@@]1(O)CC[C@@]2(C)[C@H](CC[C@@H]3[C@@H]2CC[C@]2(C)[C@@H](C(C)=O)CC[C@@H]32)C1` [3β-ethenyl-3α-hydroxy-5β-pregnan-20-one] were, in that order, 87.5%, 151%, 0.046 µM and 100.
As to `C#C[C@@]1(O)CC[C@@]2(C)[C@H](CC[C@@H]3[C@@H]2CC[C@]2(C)[C@@H]([C@@H](C)O)CC[C@@H]32)C1` [3α,20β-dihydroxy-3β-ethynyl-5β-pregnane, 3β-Ethynyl-3α,20β-dihydroxy-5β-pregnane], the “% Protected” value in assay [1] (setting [2]) is given as 25%. In addition, the IC50 at GR complex (no unit printed) was found to be 0.688 µM. The compound also registered an IMAX with GR complex of 77.
As to `C#C[C@@]1(O)CC[C@@]2(C)[C@H](CC[C@H]3[C@@H]4CC[C@H](C(C)=O)[C@@]4(C)CC(=O)[C@@H]32)C1` [3β-Ethynyl-3α-hydroxy-5β-pregnan-11,20-dione], in the assay with mice (50% hpbcd, 5 mg/kg), the “% Control” value was determined as 235.9%.
As to `C#C[C@@]1(O)CC[C@@]2(C)[C@H](CC[C@@H]3[C@@H]2CC[C@]2(C)[C@@H](C(=O)COC(=O)CCC(=O)OCC(=O)[C@H]4CC[C@H]5[C@@H]6CC[C@@H]7C[C@@](O)(C#C)CC[C@]7(C)[C@H]6CC[C@]45C)CC[C@@H]32)C1` [Bis (3α,21-dihydroxy-3β-ethynyl-5β-pregnan-20-one) 21-hemisuccinate], the “% Protected” value in assay [1] (setting [2]) is given as 37.5%. On GR complex (no unit printed), this compound displayed an IC50 of 0.068 µM. The compound further registered an IMAX in the assay on GR complex of 56.
As for `C[C@@]1(O)CC[C@@]2(C)[C@@H](CC[C@@H]3[C@@H]2CC[C@]2(C)[C@@H](C(=O)COC(=O)CCC(=O)[O-])CC[C@@H]32)C1.[Na+]` [3α,21-dihydroxy-3β-methyl-5α-pregnan-20-one 21-Hemisuccinate, sodium salt], the “% Protected” value in assay [1] (micro soln., 10 mg/kg) worked out at 11.11%. For the same compound, the IC50 on GR complex (unit inferred, sodium salt) worked out at 0.211 µM. Besides, the IMAX in the assay on GR complex is recorded as 104.
For the compound `CC(=O)[C@H]1CC[C@H]2[C@@H]3CC[C@H]4C[C@](C)(O)CC[C@@H]4[C@H]3CC[C@]12C` [3α-hydroxy-3β-methyl-5α-19-nor-pregnan-20-one], the “% Protected” value in assay [1] (micro soln., 10 mg/kg) was determined as 37.5%. At GR complex (no unit printed), this compound had an IC50 of 0.091 µM. Moreover, in the assay on GR complex, the IMAX was found to be 80.
The like results for `CC(=O)OCC(=O)[C@H]1CC[C@H]2[C@@H]3CC[C@H]4C[C@](C)(O)CC[C@]4(C)[C@H]3CC[C@]12C` [3α,21-Hydroxy-3β-methyl-5α-pregnan-20-one, 21-acetate] were, in that order, 10%, 0.284 µM and 93.
`C[C@]12CC[C@](O)(C(F)(F)F)C[C@H]1CC[C@@H]1[C@@H]2CC[C@]2(C)[C@@H](C(=O)COC(=O)CCC(=O)O)CC[C@@H]12` [3α,21-Dihydroxy-3β-trifluoromethyl-5β-pregnan-20-one, 21-hemisuccinate]: in assay [1] (water, 10 mg/kg), the “% Protected” value is reported as 50%. This compound also yielded an IC50 on GR complex (no unit printed) of 0.648 µM. In the assay with GR complex, this compound came in with an IMAX of 101.
Turning to `C#C[C@@]1(O)CC[C@@]2(C)[C@H](CC[C@@H]3[C@@H]2CC[C@]2(C)[C@@H](C(C)O)CC[C@@H]32)C1` (stereo partly drawn) [3α,20-Dihydroxy-3β-ethynyl-5β-pregnane], the “% Control” value in the assay with mice (dmso, 10 mg/kg) amounted to 178%.
On to `CC(=O)[C@H]1CC[C@H]2[C@@H]3CC[C@@H]4C[C@@](O)(C#CC5CC5)CC[C@]4(C)[C@H]3CC[C@]12C` [3β-Cyclopropylethynyl-3α-hydroxy-5β-pregnan-20-one], for which the “% Protected” value in assay [1] (setting [2]) is reported as 87.5%. Further, the IC50 came to 0.022 µM at GR complex (no unit printed) and 0.032 µM on GR complex (no unit printed, listed as 3β-(cyclopropyl)ethynyl-3α-hydroxy-5β-pregnan-20-one). In addition, the IMAX in the assay with GR complex was determined as 94; with GR complex (listed as 3β-(cyclopropyl)ethynyl-3α-hydroxy-5β-pregnan-20-one), 97.
As for `C#C[C@@]1(O)CC[C@@]2(C)[C@@H](CC[C@@H]3[C@@H]2CC[C@]2(C)[C@@H]([C@@H](C)O)CC[C@@H]32)C1` [3α,20β-dihydroxy-3β-ethynyl-5α-pregnane, 3β-ethynyl-3α,20β-dihydroxy- 5α-pregnane], the “% Protected” value in assay [1] (setting [2]) was found to be 37.5%. This compound also returned an IC50 at GR complex (no unit printed) of 0.774 µM. In addition, the IMAX in the assay on GR complex was 107.
Take `C[C@]12CC[C@@H](O)C[C@@H]1CC[C@@H]1[C@@H]2CC[C@]2(C)[C@@H](C(=O)COC(=O)CCC(=O)[O-])CC[C@@H]12.[Na+]` [3α,21-dihydroxy-5α-pregnan-20-one 21-hemisuccinate, sodium salt]: in assay [1] (water, 60 mg/kg), the “% Protected” value is listed as 100%. Also, at GR complex (unit inferred, sodium salt), the IC50 was 0.251 µM. The same compound gave an IMAX in the assay on GR complex of 92.
For `C#C[C@@]1(O)CC[C@@]2(C)[C@H](CC[C@H]3[C@@H]4CC[C@H](C(C)=O)[C@@]4(C)C=C[C@@H]32)C1` [3β-Ethynyl-3α-hydroxy-5β-pregn-11-en-20-one], the “% Protected” value in assay [1] (setting [2]) turned out to be 75%. Besides, the “% Control” value in the assay on mice (50% hpbcd, 10 mg/kg) amounted to 233%.
Take `CC(=O)C1CCC2C3CCC4CC(O)(C(F)(F)F)CCC4(C)C3C(=O)CC12C` (stereo not drawn) [3α-Hydroxy-3β-trifluoromethyl-5β-pregnan-11,20-dione]: the “% Control” value with mice (50% hpbcd, 10 mg/kg) is listed as 112%.
As for `CC(=O)OCC(=O)[C@H]1CC[C@H]2[C@@H]3CC[C@@H]4C[C@H](O)CC[C@]4(C)[C@H]3CC[C@]12C` [3α,21-dihydroxy-5β-pregnan-20-one 21-acetate], in assay [1] (setting [2]), the “% Protected” value is reported as 25%. At GR complex (no unit printed), this compound showed an IC50 of 0.119 µM. In the assay with GR complex, this compound had an IMAX of 49.
On the same counts, the results for `C[C@@]1(O)CC[C@@]2(C)[C@@H](CC[C@@H]3[C@@H]2CC[C@]2(C)[C@@H](C(=O)CO)CC[C@@H]32)C1` [3α,21-dihydroxy-3β-methyl-5α-pregnan-20-one] are 87.5%, 0.258 µM and 96.
